Here are results for one molecule from paper PMC9824425, “Ammonium Uptake, Mediated by Ammonium Transporters, Mitigates Manganese Toxicity in Duckweed, Spirodela polyrhiza” (Plants, 2023).

As usually defined, the Km is the substrate concentration at which the rate is half of its maximum.

The subject of one assay is SpAMT1;1. The note with it: NH4Cl 10-10,000 µM; pH 5.5 (MES/Tris); choline chloride 110 mM; membrane potential for the fit not told.
Another assay has as its system SpAMT1;3. The conditions noted are these: NH4Cl 10-10,000 µM; pH 5.5 (MES/Tris); choline chloride 110 mM; membrane potential for the fit not told.

On to `N` [ammonium], for which the Km came to 116 µM in the assay with SpAMT1;1 and 5400 µM with SpAMT1;3.
